Like-named read-outs stand apart in the source and are kept apart here.
Assays:
[1] = system: Pseudomonas aeruginosa Migula (ATCC 27853)
Summary of the method: (§1)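 Broth microdilution per CLSI in Müller-Hinton broth and modified LYM broth (pH 7.4; variants with 50–300 mM NaCl, 0.5–2.5 mM MgCl2, or pH 6.5–4.5). Inoculum 5 × 10^5 CFU/mL; peptides tested at 0.78–50 µg/mL final. MIC read; three independent repeats.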

S. aureus ATCC 33591 = system: S. aureus ATCC 33591
Summary of the method: as §1

[2] = system: Escherichia coli (ATCC 25922)
Summary of the method: as §1

S. aureus ATCC 6538 = system: S. aureus ATCC 6538
Summary of the method: as §1

S. aureus ATCC 25923 = system: S. aureus ATCC 25923
Summary of the method: as §1

[3] = system: A. baumannii 14B0091 (Acinetobacter sp., BCRC number 14B0091)
Summary of the method: as §1

[4] = system: A. baumannii 14B0097 (Acinetobacter sp., BCRC number 14B0097)
Summary of the method: as §1

[5] = LYM broth, 0 mM NaCl, 16 h, 37 °C
[6] = LYM broth, 50 mM NaCl, 16 h, 37 °C
[7] = LYM broth, 100 mM NaCl, 16 h, 37 °C
[8] = LYM broth, 200 mM (NaCl), 16 h, 37 °C
[9] = LYM broth, 300 mM (NaCl), 16 h, 37 °C
[10] = MH broth, 5 × 10^5 CFU/mL, 16 h, 37 °C, repeated three times

Ac-RKWLKWLAKKKKW-NH2 [Peptide W5K03]
MIC [1, 5]: 6.25 µg/mL | MIC ([1]; LYM broth, 0.5 mM MgCl2): 6.25 µg/mL | MIC ([1]; LYM broth, 1.5 mM MgCl2): 12.5 µg/mL | MIC ([1]; LYM broth, 2.5 mM MgCl2): 12.5 µg/mL | MIC [1, 6]: 12.5 µg/mL | MIC [1, 7]: 25 µg/mL | MIC [1, 8]: 25 µg/mL | MIC [1, 9]: >50 µg/mL | MIC ([1]; LYM broth, pH 4.5): 12.5 µg/mL | MIC ([1]; LYM broth, pH 5.5): 6.25 µg/mL | MIC ([1]; LYM broth, pH 6.5): 3.13 µg/mL | MIC [1, 10]: 50 µg/mL | MIC (S. aureus ATCC 33591; [5]): 25 µg/mL | MIC (S. aureus ATCC 33591; LYM broth, 0.5 mM MgCl2): 25 µg/mL | MIC (S. aureus ATCC 33591; LYM broth, 1.5 mM MgCl2): 25 µg/mL | MIC (S. aureus ATCC 33591; LYM broth, 2.5 mM MgCl2): 50 µg/mL | MIC (S. aureus ATCC 33591; [6]): 50 µg/mL | MIC (S. aureus ATCC 33591; [7]): 50 µg/mL | MIC (S. aureus ATCC 33591; [8]): >50 µg/mL | MIC (S. aureus ATCC 33591; [9]): >50 µg/mL | MIC (S. aureus ATCC 33591; LYM broth, pH 4.5): 25 µg/mL | MIC (S. aureus ATCC 33591; LYM broth, pH 5.5): 25 µg/mL | MIC (S. aureus ATCC 33591; LYM broth, pH 6.5): 12.5 µg/mL | MIC (S. aureus ATCC 33591; [10]): >50 µg/mL | MIC [2, 5]: 6.25 µg/mL | MIC ([2]; LYM broth, 0.5 mM MgCl2): 12.5 µg/mL | MIC ([2]; LYM broth, 1.5 mM MgCl2): 25 µg/mL | MIC ([2]; LYM broth, 2.5 mM MgCl2): 25 µg/mL | MIC [2, 6]: 25 µg/mL | MIC [2, 7]: 50 µg/mL | MIC [2, 8]: >50 µg/mL | MIC [2, 9]: >50 µg/mL | MIC ([2]; LYM broth, pH 4.5): 6.25 µg/mL | MIC ([2]; LYM broth, pH 5.5): 6.25 µg/mL | MIC ([2]; LYM broth, pH 6.5): 3.13 µg/mL | MIC [2, 10]: 50 µg/mL | MIC (S. aureus ATCC 6538; [5]): 1.56 µg/mL | MIC (S. aureus ATCC 6538; LYM broth, 0.5 mM MgCl2): 3.13 µg/mL | MIC (S. aureus ATCC 6538; LYM broth, 1.5 mM MgCl2): 3.13 µg/mL | MIC (S. aureus ATCC 6538; LYM broth, 2.5 mM MgCl2): 6.25 µg/mL | MIC (S. aureus ATCC 6538; [6]): 3.13 µg/mL | MIC (S. aureus ATCC 6538; [7]): 6.25 µg/mL | MIC (S. aureus ATCC 6538; [8]): 12.5 µg/mL | MIC (S. aureus ATCC 6538; [9]): 25 µg/mL | MIC (S. aureus ATCC 6538; LYM broth, pH 4.5): 6.25 µg/mL | MIC (S. aureus ATCC 6538; LYM broth, pH 5.5): 3.13 µg/mL | MIC (S. aureus ATCC 6538; LYM broth, pH 6.5): 3.13 µg/mL | MIC (S. aureus ATCC 6538; [10]): 25 µg/mL | MIC (S. aureus ATCC 25923; [5]): 6.25 µg/mL | MIC (S. aureus ATCC 25923; LYM broth, 0.5 mM MgCl2): 6.25 µg/mL | MIC (S. aureus ATCC 25923; LYM broth, 1.5 mM MgCl2): 12.5 µg/mL | MIC (S. aureus ATCC 25923; LYM broth, 2.5 mM MgCl2): 12.5 µg/mL | MIC (S. aureus ATCC 25923; [6]): 12.5 µg/mL | MIC (S. aureus ATCC 25923; [7]): 25 µg/mL | MIC (S. aureus ATCC 25923; [8]): >50 µg/mL | MIC (S. aureus ATCC 25923; [9]): >50 µg/mL | MIC (S. aureus ATCC 25923; LYM broth, pH 4.5): 6.25 µg/mL | MIC (S. aureus ATCC 25923; LYM broth, pH 5.5): 3.13 µg/mL | MIC (S. aureus ATCC 25923; LYM broth, pH 6.5): 3.13 µg/mL | MIC (S. aureus ATCC 25923; [10]): 50 µg/mL | MIC [3, 5]: 1.56 µg/mL | MIC ([3]; LYM broth, 0.5 mM MgCl2): 1.56 µg/mL | MIC ([3]; LYM broth, 1.5 mM MgCl2): 3.13 µg/mL | MIC ([3]; LYM broth, 2.5 mM MgCl2): 3.13 µg/mL | MIC [3, 6]: 3.13 µg/mL | MIC [3, 7]: 3.13 µg/mL | MIC [3, 8]: 6.25 µg/mL | MIC [3, 9]: 25 µg/mL | MIC ([3]; LYM broth, pH 4.5): 3.13 µg/mL | MIC ([3]; LYM broth, pH 5.5): 3.13 µg/mL | MIC ([3]; LYM broth, pH 6.5): 1.56 µg/mL | MIC [3, 10]: 6.25 µg/mL | MIC [4, 5]: 1.56 µg/mL | MIC ([4]; LYM broth, 0.5 mM MgCl2): 3.13 µg/mL | MIC ([4]; LYM broth, 1.5 mM MgCl2): 3.13 µg/mL | MIC ([4]; LYM broth, 2.5 mM MgCl2): 3.13 µg/mL | MIC [4, 6]: 3.13 µg/mL | MIC [4, 7]: 3.13 µg/mL | MIC [4, 8]: 6.25 µg/mL | MIC [4, 9]: 25 µg/mL | MIC ([4]; LYM broth, pH 4.5): 3.13 µg/mL | MIC ([4]; LYM broth, pH 5.5): 3.13 µg/mL | MIC ([4]; LYM broth, pH 6.5): 3.13 µg/mL | MIC [4, 10]: 6.25 µg/mL
